The values below come from patent US20260234123A1, “Inhibitors of NLRP3” (Mwyngil Therapeutics, Inc., priority 2023, published 2026).

Bounds are passed on as bounds.

As usually defined, the EC50 is the concentration needed to bring the measured effect to its halfway point.

In the first experiment the test system is IL1b release THP-1. The experiment can be described thus: IL1b release THP-1 (ELISA). In kind it is cell-based. Particulars: Homo sapiens, THP-1, read-out: THP 1 IL 1b, EC50, μM. The method, boiled down: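 THP-1 cells in serum-free medium were primed with 1 μg/ml LPS for 4 h, then stimulated with 10 μM nigericin for 2 h at 37° C., 5% CO2. IL-1β in supernatant measured by ELISA; EC50 values binned into A–E ranges.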
In general terms: ELISA stands for enzyme-linked immunosorbent assay.
As to `Cc1cc(-c2ccc(C(F)(F)F)cc2NS(C)(=O)=O)nnc1N[C@@H]1CCCN(C2CCCCC2)C1` [Compound 32, (R)—N-(2-(6-((1-Cyclohexylpiperidin-3-yl)amino)-5-methylpyridazin-3-yl)-5-(trifluoromethyl)phenyl) methanesulfonamide], the EC50 was less than 0.5 µM.

Still in this experiment, the particulars now being: Homo sapiens; average EC50; THP-1 cells primed with 1 μg/ml LPS 4 h, stimulated with 10 μM Nigericin 2 h; IL-1β in supernatant by ELISA; read-out: THP 1 IL 1b, EC50.
As for `CNc1cc(C(F)(F)F)ccc1-c1cc(C)c(N[C@@H]2CCCN(C(C)C)C2)nn1` [Compound 119, N-[(3R)-1-isopropyl-3-piperidyl]-4-methyl-6-[2-(methylamino)-4-(trifluoromethyl)phenyl]pyridazin-3-amine], the EC50 was less than 0.5 µM. Same read-out and setting: as for `Cc1cc(-c2ccc(C(F)(F)F)cc2NC(=O)C(C)C)nnc1N[C@@H]1CCCN(C(C)C)C1` [Compound 29, N-[2-[6-[[(3R)-1-isopropyl-3-piperidyl]amino]-5-methyl-pyridazin-3-yl]-5-(trifluoromethyl)phenyl]-2-methyl-propanamide], the figure is 1 to 5 µM. Still for that read-out and setting: for `Cc1cc(N[C@@H]2CCCN(CC(C)(C)O)C2)nnc1-c1ccc(C(F)(F)F)cc1NS(C)(=O)=O` [Compound 47] the value was 0.5 to 1 µM. Still for that read-out and setting: as for `Cc1cc(N[C@@H]2CCCN(C3CCCCC3)C2)nnc1-c1ccc(C(F)(F)F)cc1NS(C)(=O)=O` [Compound 41, N-[2-[6-[[(3R)-1-cyclohexyl-3-piperidyl]amino]-4-methyl-pyridazin-3-yl]-5-(trifluoromethyl)phenyl]methanesulfon-amide], the figure is less than 0.5 µM; as for `CCN1CCC[C@@H](Nc2cc(C(F)(F)F)c(-c3ccc(C(F)(F)F)cc3NS(C)(=O)=O)nn2)C1` [Compound 49, N-[2-[6-[[(3R)-1-ethyl-3-piperidyl]amino]-4-(trifluoromethyl)pyridazin-3-yl]-5-(trifluoromethyl)phenyl]methanesulfon-amide], 1 to 5 µM. As for `CN1CCC[C@@H](Nc2nnc(-c3ccc(C(F)(F)F)c(N)c3N)cc2C(F)(F)F)C1` [Compound 102, 3-[6-[[(3R)-1-methyl-3-piperidyl]amino]-5-(trifluoromethyl)pyridazin-3-yl]-6-(trifluoromethyl)benzene-1,2-diamine], the EC50 is 5 to 30 µM. On the same count and under the same terms, as for `COC(C)(C)CCN1CCC[C@@H](Nc2cc(C)c(-c3ccc(C(F)(F)F)cc3NS(C)(=O)=O)nn2)C1` [Compound 53, N-[2-[6-[[(3R)-1-(3-methoxy-3-methyl-butyl)-3-piperidyl]amino]-4-methyl-pyridazin-3-yl]-5-(trifluoromethyl)phenyl]methanesulfon-amide], the figure is 1 to 5 µM; as for `Cc1cc(N[C@@H]2CCCN(CCC(C)(C)O)C2)nnc1-c1ccc(C(F)(F)F)cc1NS(C)(=O)=O` [Compound 55, (R)—N-(2-(6-((1-(3-Hydroxy-3-methylbutyl)piperidin-3-yl)amino)-4-methylpyridazin-3-yl)-5-(trifluoromethyl)phenyl) methanesulfonamide], 1 to 5 µM; as for `Cc1cc(N[C@@H]2CCCN(C3CCCC3)C2)nnc1-c1ccc(C(F)(F)F)cc1NS(C)(=O)=O` [Compound 33], less than 0.5 µM. On the same count and under the same terms, as for `CC(C)=CCN1CCC[C@@H](Nc2cc(C)c(-c3ccc(C(F)(F)F)cc3NS(C)(=O)=O)nn2)C1` [Compound 48, (R)—N-(2-(4-Methyl-6-((1-(3-methylbut-2-en-1-yl)piperidin-3-yl)amino)pyridazin-3-yl)-5-(trifluoromethyl)phenyl) methanesulfonamide], the figure is 0.5 to 1 µM; as for `Cc1cc(-c2ccc(C(F)(F)F)cc2NS(C)(=O)=O)nnc1N[C@@H]1CCCN(CCO)C1` [Compound 9, (R)—N-(2-(6-((1-(2-Hydroxyethyl)piperidin-3-yl)amino)-5-methylpyridazin-3-yl)-5-(trifluoromethyl)phenyl) methanesulfonamide], 0.5 to 1 µM; as for `CCN1CCC[C@@H](Nc2nnc(-c3ccc(C(F)(F)F)cc3NS(C)(=O)=O)cc2C(F)(F)F)C1` [Compound 45, N-[2-[6-[[(3R)-1-ethyl-3-piperidyl]amino]-5-(trifluoromethyl)pyridazin-3-yl]-5-(trifluoromethyl)phenyl]methanesulfon-amide], 0.5 to 1 µM.

Consider `CCN1CCC[C@@H](Nc2nnc(-c3ccc(C(F)(F)F)cc3NC(C)=O)cc2C)C1` [Compound 133, N-[2-[6-[[(3R)-1-ethyl-3-piperidyl]amino]-5-methyl-pyridazin-3-yl]-5-(trifluoromethyl)phenyl]acetamide], for which the EC50 fell in the range of 0.5 to 1 µM. On the same count and under the same terms, as for `Cc1cc(N[C@@H]2CCCN(C3CC3)C2)nnc1-c1ccc(C(F)(F)F)cc1NS(C)(=O)=O` [Compound 36, N-[2-[6-[[(3R)-1-cyclopropyl-3-piperidyl]amino]-4-methyl-pyridazin-3-yl]-5-(trifluoromethyl)phenyl]methanesulfon-amide], the figure is less than 0.5 µM; as for `CCN1CCC[C@@H](Nc2nnc(-c3ccc(C(F)(F)F)cc3NS(=O)(=O)CC)cc2C)C1` [Compound 62, (R)—N-(2-(6-((1-Ethylpiperidin-3-yl)amino)-5-methylpyridazin-3-yl)-5-(trifluoromethyl)phenyl) ethanesulfonamide], less than 0.5 µM; as for `Cc1cc(N[C@@H]2CCCN(C)C2)nnc1-c1ccc(C(F)(F)F)c2cn[nH]c12` [Compound 14, (R)-5-Methyl-N-(1-methylpiperidin-3-yl)-6-(4-(trifluoromethyl)-1H-indazol-7-yl)pyridazin-3-amine], 1 to 5 µM.

For `Cc1cc(N[C@@H]2CCCN(C)C2)nnc1-c1ccc(C(F)(F)F)c2nn[nH]c12` [Compound 20, (R)-5-Methyl-N-(1-methylpiperidin-3-yl)-6-(4-(trifluoromethyl)-1H-benzo[d][1,2,3]triazol-7-yl)pyridazin-3-amine], the half-maximal effective concentration (EC50) is greater than 30 µM. Still for that read-out and setting: as for `Cc1cc(-c2ccc(C(F)(F)F)cc2NS(C)(=O)=O)nnc1N[C@@H]1CCCN(C2CC2)C1` [Compound 42, (R)—N-(2-(6-((1-Cyclopropylpiperidin-3-yl)amino)-5-methylpyridazin-3-yl)-5-(trifluoromethyl)phenyl) methanesulfonamide], the figure is less than 0.5 µM; as for `CCN1CCC[C@@H](Nc2nnc(-c3ccc(C(F)(F)F)cc3NS(C)(=O)=O)c3c2CCCC3)C1` [Compound 37, (R)—N-(2-(4-((1-Ethylpiperidin-3-yl)amino)-5,6,7,8-tetrahydrophthalazin-1-yl)-5-(trifluoromethyl)phenyl) methane sulfonamide], less than 0.5 µM. Same read-out and setting: for `Cc1c(N[C@@H]2CCCN(C)C2)nnc(-c2ccc(C(F)(F)F)c3nn[nH]c23)c1C` [Compound 22, (R)-4,5-dimethyl-N-(1-methylpiperidin-3-yl)-6-(4-(trifluoromethyl)-1H-benzo[d][1,2,3]triazol-7-yl)pyridazin-3-amine] the value was 5 to 30 µM; for `Cc1cc(-c2ccc(C(F)(F)F)c3nn[nH]c23)nnc1N[C@@H]1CCCN(C)C1` [Compound 21, 4-methyl-N-[(3R)-1-methyl-3-piperidyl]-6-[7-(trifluoromethyl)-3H-benzotriazol-4-yl]pyridazin-3-amine], 5 to 30 µM; for `CCN1CCC[C@@H](Nc2cc(C)c(-c3ccc(C(F)(F)F)cc3NC(C)=O)nn2)C1` [Compound 134, (R)—N-(2-(6-((1-ethylpiperidin-3-yl)amino)-4-methylpyridazin-3-yl)-5-(trifluoromethyl)phenyl) acetamide], 0.5 to 1 µM. Still for that read-out and setting: for `CCN1CCC[C@@H](Nc2nnc(-c3ccc(C(F)(F)F)cc3NS(C)(=O)=O)cc2C)C1` [Compound 8, (R)—N-(2-(6-((1-Ethylpiperidin-3-yl)amino)-5-methylpyridazin-3-yl)-5-(trifluoromethyl)phenyl) methanesulfonamide] the value was less than 0.5 µM.

Take `CN1CCC[C@@H](Nc2nnc(-c3ccc(C(F)(F)F)cc3NS(C)(=O)=O)cc2C(F)(F)F)C1` [Compound 52, N-[2-[6-[[(3R)-1-methyl-3-piperidyl]amino]-5-(trifluoromethyl)pyridazin-3-yl]-5-(trifluoromethyl)phenyl]methanesulfon-amide]: the half-maximal effective concentration (EC50) is 1 to 5 µM.

As for `Cc1cc(-c2ccc(C(F)(F)F)cc2NC(=O)C(C)(C)C)nnc1N[C@@H]1CCCN(C(C)C)C1` [Compound 135, N-[2-[6-[[(3R)-1-isopropyl-3-piperidyl]amino]-5-methyl-pyridazin-3-yl]-5-(trifluoromethyl)phenyl]-2,2-dimethyl-propanamide], the concentration giving a half-maximal response (EC50) was in the range of 0.5 to 1 µM. On the same count and under the same terms, as for `Cc1cc(N[C@@H]2CCCN(C3CCOCC3)C2)nnc1-c1ccc(C(F)(F)F)cc1NS(C)(=O)=O` [Compound 39], the figure is less than 0.5 µM; as for `Cc1cc(-c2ccc(C(F)(F)F)cc2NS(C)(=O)=O)nnc1N[C@@H]1CCCN(C)C1` [Compound 7, (R)—N-(2-(5-Methyl-6-((1-methylpiperidin-3-yl)amino)pyridazin-3-yl)-5-(trifluoromethyl)phenyl) methanesulfonamide], less than 0.5 µM; as for `CCN1CCC[C@@H](Nc2cc(C)c(-c3ccc(C(F)(F)F)c4cn[nH]c34)nn2)C1` [Compound 15, (R)—N-(1-Ethylpiperidin-3-yl)-5-methyl-6-(4-(trifluoromethyl)-1H-indazol-7-yl)pyridazin-3-amine], 1 to 5 µM. As for `Cc1cc(N[C@@H]2CCCN(C(C)C)C2)nnc1-c1ccc(C(F)(F)F)cc1N` [Compound 110, (R)-6-(2-Amino-4-(trifluoromethyl)phenyl)-N-(1-isopropylpiperidin-3-yl)-5-methyl pyridazin-3-amine], the concentration giving a half-maximal response (EC50) is less than 0.5 µM. The same measure, in the same setting: as for `CCNc1cc(C(F)(F)F)ccc1-c1nnc(N[C@@H]2CCCN(C(C)C)C2)cc1C` [Compound 109, 6-[2-(ethylamino)-4-(trifluoromethyl)phenyl]-N-[(3R)-1-isopropyl-3-piperidyl]-5-methyl-pyridazin-3-amine], the figure is less than 0.5 µM; as for `CCN1CCC[C@@H](Nc2nnc(-c3ccc(C(F)(F)F)c4cn[nH]c34)cc2C)C1` [Compound 18, (R)—N-(1-ethylpiperidin-3-yl)-4-methyl-6-(4-(trifluoromethyl)-1H-indazol-7-yl)pyridazin-3-amine], greater than 30 µM.
